Data: patent publication US8143276B2, “4-thio substituted quinoline and naphthyridine compounds” (XTL Biopharmaceuticals Ltd., priority 2007, dated 2012)

Experiments:
[1] = CellTiter-Glo Cell Viability Assay; assay type: cell-based, human; details: human, Huh-Luc-Neo cells, read-out: Cytotoxicity*
Description: Day 0, Cell Seeding and Compound Treatment: Huh-Luc-Neo Cells are seeded at 25,000/well in an opaque-walled 96 plate with Growth Medium (DMEM phenol red free+PS+2 mM glutamine; 100 ul/well). The compounds to be tested for inhibition of cell viability are added to the experimental wells (10 μl/well at 10× assay concentration) and the cells are then incubated (5% CO2, 37° C.) for 48 h.
Day 2, Reagent Preparation and Assay: The CellTiter-Glo Buffer is thawed and equilibrated to room temperature prior to use. The lyophilized CellTiter-Glo Substrate is equilibrated to room temperature prior to use. 10 ml of CellTiter-Glo Buffer is transferred to 1 vial of CellTiter-Glo Substrate and mixed by gently with a Vortex. 100 μl of CellTiter-Glo Assay reagent (CellTiter-Glo Buffer+CellTiter-Glo Substrate Mixture) is added to each well. The well contents are mixed for 5 min. on an orbital shaker at room temperature to induce cell lysis and the luminescence is then measured using a luminometer.

HCV RNA = assay: HCV Replicon RNA Assay (Taqman); assay type: cell-based, Hepatitis C virus; details: Hepatitis C virus; Huh-Luc-Neo cells, compound re-added at 24 h, HCV RNA by quantitative PCR; read-out: Replicon Inhibition*, Taqman
Description: (§1) Expression of HCV IRES driven luciferase reporter activity and HCV RNA is measured to obtain indirect and direct measures of replication of HCV RNA respectively. Inhibitors of HCV replication and/or proliferation are determined by initially identifying molecules that inhibit expression of the HCV IRES driven luciferase reporter in this HCV Replicon Luciferase Assay. Cell viability assays and control cell based luciferase assays are then run on hits identified in the HCV Replicon Luciferase Assay to eliminate cytoxic compounds and non-specific compounds which act by inhibiting the luciferase enzyme.
Day 0, Cell Seeding and Compound Treatment: Huh-Luc-Neo Cells are seeded at 25,000/well in an opaque-walled 96 plate with Growth Medium (DMEM phenol red free+PS+2 mM glutamine; 100 μl/well). The compounds to be tested are added to the experimental wells (10 μl/well at 10× assay concentration) and the cells are then incubated (5% CO2, 37° C.).
Day 1, Media Change and Compound Treatment: 24 hours after the initial compound treatment the cell culture media is aspirated from the wells and fresh Growth Medium is added (DMEM phenol red free+PS+2 mM glutamine; 100 μl/well). The compounds to be tested are then added to the appropriate experimental wells (10 μl/well at 10× assay concentration) and the cells are then incubated (5% CO2, 37° C.) for an additional 24 hrs.
Day 2, RNA Isolation and cDNA Synthesis: The cells are washed with 1× Phosphate Buffered Saline (PBS) once.
Day 3, Quantitative PCR Based Measurement of HCV RNA (Taqman Assay): Quantitative PCR analysis to measure HCV RNA expression from cDNA synthesized on Day 2 is performed using the ABI 9700 HT Sequence Detection System (Applied Biosystems) as previously described (Lohman et al, Science 285, 110-113, 1999). The data is analyzed and IC50s are determined using GraphPad Prism 4 software. Hits validated in the Replicon RNA Assay have IC50s<8.0 μM and show <30% inhibition of Cell Viability at a compound concentration of 50 μM (Cell Titer Glow Assay, cell viability assay conditions identical to HCV Replicon RNA Assay conditions).

HCV Replicon = HCV Replicon Luciferase Assay; assay type: cell-based, Hepatitis C virus; details: Hepatitis C virus; Huh-Luc-Neo cells, 48 h incubation, luciferase reporter; read-out: Replicon Inhibition*, Luciferase
Description: The identification of inhibitors of HCV replication and/or proliferation has been facilitated by the development of a cell-based system to study HCV replication. Inhibition of HCV replication may be performed using the HCV Replicon Assay developed in the laboratories of Bartenschlager (Lohman et al, Science 285, 110-113, 1999) and Rice (Blight et al, Science 290, 1972-1974, 2000). The assay is performed using the Huh-Luc-Neo cell line (Lohman et al, Science 285, 110-113, 1999). Huh-Luc-Neo cells are a human hepatoma cell line (Huh-7) stably expressing a bi-cistronic subgenomic replicon containing the HCV IRES in which the structural proteins of HCV have been deleted and replaced by a construct containing sequences coding for the firefly luciferase reporter gene, the neomycin selectable marker and the EMCV IRES to direct expression of a truncated HCV genome expressing the […] NS3, NS4A, NS4B, NS5A, and NS5B. HCV targets through which inhibitors could act to inhibit replication include the NS3 protease, the helicase/ATPase, NS5A, the NS5B-RNA dependent RNA polymerase, and the HCV IRES.
as §1
Day 0, Cell Seeding and Compound Treatment: Huh-Luc-Neo Cells are seeded at 25,000/well in an opaque-walled 96 plate with Growth Medium (DMEM phenol red free+PS+2 mM glutamine; 100 μl/well). The compounds to be tested are added to the experimental wells (10 μl/well at 10× assay concentration) and the cells are then incubated (5% CO2, 37° C.) for 48 h.
Day 2, Reagent Preparation and Luciferase Assay: The Bright-Glo Luciferase Assay Buffer (Promega) is thawed and equilibrated to room temperature prior to use. The lyophilized Bright-Glo Luciferase Assay Substrate is equilibrated to room temperature prior to use. 10 ml of Bright-Glo Luciferase Assay Buffer is transferred to 1 vial of Bright-Glo Luciferase Assay Substrate bottle and mixed by gently with a Vortex. 100 μl of Bright-Glo Luciferase Assay reagent (Bright-Glo Luciferase Assay Buffer+Bright-Glo Luciferase Assay Substrate Mixture) is added to each well. The well contents are mixed for 5 min. on an orbital shaker at room temperature to induce cell lysis and the luminescence is then measured using a luminometer. The data is analyzed and IC50s are determined using GraphPad Prism 4 software. Hits validated in the Replicon Luciferase assay have IC50s<8.0 μM and show <30% inhibition of Cell Viability at a compound concentration of 100 μM (Cell Titer Glow Assay, cell viability assay conditions identical to HCV Replicon Luciferase Assay conditions).

Cn1c(=O)cc(Sc2ccc(Br)cc2)c2ccccc21 [compound 001]
IC50 at 48 h [1]: > 100 µM
IC50 (HCV RNA): < 1 µM
IC50 (HCV Replicon): 1 to 10 µM

Cn1c(=O)cc(Sc2ccc(Cl)cc2)c2ccccc21 [compound 002]
IC50 at 48 h [1]: > 100 µM
IC50 (HCV RNA): 1 to 10 µM
IC50 (HCV Replicon): 1 to 10 µM

Cn1c(=O)cc(Sc2ccc(F)cc2)c2ccccc21 [compound 003]
IC50 at 48 h [1]: > 100 µM
IC50 (HCV RNA): 1 to 10 µM
IC50 (HCV Replicon): 1 to 10 µM

Cn1c(=O)cc(Sc2c(Cl)cccc2Cl)c2ccccc21 [compound 004]
IC50 at 48 h [1]: > 100 µM
IC50 (HCV RNA): < 1 µM
IC50 (HCV Replicon): 1 to 10 µM

Cn1c(=O)cc(Sc2cc(Cl)ccc2Cl)c2ccccc21 [compound 006]
IC50 at 48 h [1]: > 100 µM
IC50 (HCV RNA): 1 to 10 µM
IC50 (HCV Replicon): 10 to 100 µM

Cn1c(=O)cc(Sc2cccc(F)c2)c2ccccc21 [compound 007]
IC50 at 48 h [1]: > 100 µM
IC50 (HCV RNA): 1 to 10 µM
IC50 (HCV Replicon): 1 to 10 µM

Cn1c(=O)cc(Sc2ccc(N)cc2)c2ccccc21 [compound 009]
IC50 at 48 h [1]: > 100 µM
IC50 (HCV RNA): < 1 µM
IC50 (HCV Replicon): < 1 µM

CCn1c(=O)cc(Sc2ccc(Br)cc2)c2ccccc21 [compound 010]
IC50 at 48 h [1]: > 100 µM
IC50 (HCV RNA): < 1 µM
IC50 (HCV Replicon): 1 to 10 µM

Cn1c(=O)cc(Sc2ccc(Br)cc2)c2cc(Cl)ccc21 [compound 011]
IC50 at 48 h [1]: > 100 µM
IC50 (HCV RNA): 1 to 10 µM
IC50 (HCV Replicon): 1 to 10 µM

COc1ccc(Sc2cc(=O)n(C)c3ccccc23)cc1 [compound 012]
IC50 at 48 h [1]: > 100 µM
IC50 (HCV RNA): 10 to 100 µM
IC50 (HCV Replicon): 1 to 10 µM

Cn1c(=O)cc(Sc2ccc(C(C)(C)C)cc2)c2ccccc21 [compound 013]
IC50 at 48 h [1]: > 100 µM
IC50 (HCV RNA): < 1 µM
IC50 (HCV Replicon): 1 to 10 µM

Cn1c(=O)cc(Sc2ccc(I)cc2)c2ccccc21 [compound 014]
IC50 at 48 h [1]: > 100 µM
IC50 (HCV RNA): < 1 µM
IC50 (HCV Replicon): 1 to 10 µM

Cn1c(=O)cc(Sc2ccc(Cl)cc2)c2cc(F)ccc21 [compound 015]
IC50 at 48 h [1]: > 100 µM
IC50 (HCV RNA): 1 to 10 µM
IC50 (HCV Replicon): 1 to 10 µM

Cc1ccc(Sc2cc(=O)n(C)c3ccc(F)cc23)cc1 [compound 016]
IC50 at 48 h [1]: > 100 µM
IC50 (HCV RNA): 1 to 10 µM
IC50 (HCV Replicon): 1 to 10 µM

CC(=O)Nc1ccc(Sc2cc(=O)n(C)c3ccccc23)cc1 [compound 017]
IC50 at 48 h [1]: > 100 µM
IC50 (HCV RNA): 1 to 10 µM
IC50 (HCV Replicon): 1 to 10 µM

Cn1c(=O)cc(Sc2ccc(F)cc2)c2cc(F)ccc21 [compound 018]
IC50 at 48 h [1]: > 100 µM
IC50 (HCV RNA): 1 to 10 µM
IC50 (HCV Replicon): 1 to 10 µM

Cn1c(=O)cc(Sc2ccc(N)cc2)c2cccnc21 [compound 019]
IC50 at 48 h [1]: > 100 µM
IC50 (HCV RNA): 1 to 10 µM
IC50 (HCV Replicon): < 1 µM

Cc1ccc(Sc2cc(=O)n(C)c3ncccc23)cc1 [compound 020]
IC50 at 48 h [1]: > 100 µM
IC50 (HCV RNA): 1 to 10 µM
IC50 (HCV Replicon): < 1 µM

COCCOCC(=O)Nc1ccc(Sc2cc(=O)n(C)c3ccccc23)cc1 [compound 021]
IC50 at 48 h [1]: > 100 µM
IC50 (HCV RNA): 1 to 10 µM
IC50 (HCV Replicon): < 1 µM

Cn1c(=O)cc(Sc2ccc(NC(=O)[C@H](Cc3ccccc3)NC(=O)OC(C)(C)C)cc2)c2ccccc21 [compound 022]
IC50 at 48 h [1]: > 100 µM
IC50 (HCV RNA): 1 to 10 µM
IC50 (HCV Replicon): 1 to 10 µM

C[C@H](OCc1ccccc1)[C@@H](NC(=O)OC(C)(C)C)C(=O)Nc1ccc(Sc2cc(=O)n(C)c3ccccc23)cc1 [compound 023]
IC50 at 48 h [1]: > 100 µM
IC50 (HCV RNA): 1 to 10 µM
IC50 (HCV Replicon): 1 to 10 µM

Cn1c(=O)cc(Sc2ccc(NC(=O)[C@@H](NC(=O)OC(C)(C)C)C3CCCCC3)cc2)c2ccccc21 [compound 024]
IC50 at 48 h [1]: > 100 µM
IC50 (HCV RNA): 1 to 10 µM
IC50 (HCV Replicon): < 1 µM

Cn1c(=O)cc(Sc2ccc(NC(=O)[C@H](Cc3ccc(F)cc3)NC(=O)OC(C)(C)C)cc2)c2ccccc21 [compound 025]
IC50 at 48 h [1]: > 100 µM
IC50 (HCV RNA): 1 to 10 µM
IC50 (HCV Replicon): 1 to 10 µM

Cc1ccc2c(c1)c(Sc1ccc(F)cc1)cc(=O)n2C [compound 026]
IC50 at 48 h [1]: 10 to 100 µM
IC50 (HCV RNA): < 1 µM
IC50 (HCV Replicon): < 1 µM

Cn1c(=O)cc(Sc2ccc(N)cc2)c2ccc(Cl)cc21 [compound 027]
IC50 at 48 h [1]: 10 to 100 µM
IC50 (HCV RNA): < 1 µM
IC50 (HCV Replicon): < 1 µM

Cc1ccc2c(c1)c(Sc1ccc(Cl)cc1)cc(=O)n2C [compound 028]
IC50 at 48 h [1]: 10 to 100 µM
IC50 (HCV RNA): < 1 µM
IC50 (HCV Replicon): < 1 µM

COc1ccc2c(c1)c(Sc1ccc(C)cc1)cc(=O)n2C [compound 029]
IC50 at 48 h [1]: > 100 µM
IC50 (HCV RNA): < 1 µM
IC50 (HCV Replicon): < 1 µM

COc1ccc2c(c1)c(Sc1ccc(N)cc1)cc(=O)n2C [compound 030]
IC50 at 48 h [1]: 10 to 100 µM
IC50 (HCV RNA): < 1 µM
IC50 (HCV Replicon): < 1 µM

Cc1ccc2c(c1)c(Sc1ccc(Br)cc1)cc(=O)n2C [compound 031]
IC50 at 48 h [1]: 10 to 100 µM
IC50 (HCV RNA): < 1 µM
IC50 (HCV Replicon): < 1 µM

Cc1ccc(Sc2cc(=O)n(C)c3ccc(C)cc23)cc1 [compound 032]
IC50 at 48 h [1]: 10 to 100 µM
IC50 (HCV RNA): < 1 µM
IC50 (HCV Replicon): < 1 µM
